Results published in ChEMBL document CHEMBL3232942, “Benzophenone C-glucosides and gallotannins from mango tree stem bark with broad-spectrum anti-viral activity” (Bioorg Med Chem, 2014).
The source made the active and inactive calls. No cut-off for these calls is given here.

Experiments:
[1] = biological target: Genome polyprotein (Coxsackievirus B3 (strain Nancy)) (UniProt P03313); experiment: Inhibition of His-6-tagged Coxsackievirus B3 3C protease expressed in Escherichia coli BL21(DE3) using Asp-Glu-EDANS-(5-((2-aminoethyl)amino)naphthalene-1-sulfonic acid)-MSAIFQGPISK-DABCYL (4-((4-(dimethylamino)phenyl)azo)benzoic acid) as peptide substrate at 100 uM by fluorescence-based […] assay
[2] = biological target: Neuraminidase (Influenza A virus, UniProt Q194T1); experiment: Inhibition of Influenza A virus (A/RI/5+/1957(H2N2)) recombinant neuraminidase using MUNANA as substrate after 30 mins
[3] = biological target: Genome polyprotein (Coxsackievirus B3 (strain Nancy), UniProt P03313); experiment: Inhibition of His-6-tagged Coxsackievirus B3 3C protease expressed in Escherichia coli BL21(DE3) using Asp-Glu-EDANS-(5-((2-aminoethyl)amino)naphthalene-1-sulfonic acid)-MSAIFQGPISK-DABCYL (4-((4-(dimethylamino)phenyl)azo)benzoic acid) as peptide substrate by fluorescence-based […] assay
[4] = test system: HepG2; experiment: Cytotoxicity against human HepG2 cells assessed as cell viability after 48 hrs by MTT assay; format: cell-based; conditions: HepG2, 48 h
[5] = test system: HeLa; experiment: Cytotoxicity against human HeLa cells assessed as cell viability after 48 hrs by MTT assay; format: cell-based

Structure (SMILES)	inhibition [1]	further results
COc1cc(O)c(C(=O)c2ccc(O)cc2)c(O)c1[C@@H]1O[C@H](CO)[C@@H](O)[C@H](O)[C@H]1OC(=O)c1cc(O)c(O)c(O)c1	53.8%	–
COc1cc2oc3cc(O)c(O)cc3c(=O)c2c(O)c1[C@@H]1O[C@H](CO)[C@@H](O)[C@H](O)[C@H]1O	13.3%	–
COc1cc(O)c(C(=O)c2ccc(O)cc2)c(O)c1[C@@H]1O[C@H](CO)[C@@H](O)[C@H](O)[C@H]1O	17.5%	–
O=c1c2cc(O)c(O)cc2oc2cc(O)c([C@@H]3O[C@H](CO)[C@@H](O)[C@H](O)[C@H]3O)c(O)c12	21.4%	–
O=C(O[C@@H]1O[C@H](CO)[C@@H](O)[C@H](O)[C@H]1O)c1cc(O)c(O)c(O)c1	23.6%	–
O=C(OC[C@H]1O[C@@H](OC(=O)c2cc(O)c(O)c(O)c2)[C@H](OC(=O)c2cc(O)c(O)c(O)c2)[C@@H](OC(=O)c2cc(O)c(O)c(O)c2)[C@@H]1OC(=O)c1cc(O)c(O)c(O)c1)c1cc(O)c(O)c(O)c1 [PENTAGALLOYL GLUCOSE]	100%	IC50 [2]: 11.9 µM; IC50 [3]: 1.1 µM; IC50 [4]: 92.4 µM; IC50 [5]: 356 µM
COc1cc(O)c(C(=O)c2ccc(O)cc2)c(O)c1[C@@H]1O[C@H](CO)[C@@H](O)[C@H](O)[C@H]1OC(=O)c1ccc(O)cc1	27.2%	–
O=C(O[C@@H]1C[C@](O)(C(=O)O)C[C@@H](O)[C@H]1O)c1cc(O)c(O)c(O)c1	29.8%	–
CCOC(=O)C1=C[C@@H](OC(CC)CC)[C@H](NC(C)=O)[C@@H](N)C1 [OSELTAMIVIR PHOSPHATE]	–	IC50 [2]: 0.8 µM
O=C(OC(=O)c1ccc(O)c(O)c1)c1ccc(O)c(O)c1	inactive	–
O=C(OC[C@H]1O[C@@H](O)[C@H](OC(=O)c2cc(O)c(O)c(O)c2)[C@@H](OC(=O)c2cc(O)c(O)c(O)c2)[C@@H]1OC(=O)c1cc(O)c(O)c(O)c1)c1cc(O)c(O)c(O)c1	100%	IC50 [2]: 9.2 µM; IC50 [3]: 2 µM; IC50 [4]: 151 µM; IC50 [5]: 240 µM
O=C(O)c1cc(O)c(O)c(O)c1	inactive	–
O=c1c2cc(O)c(O)cc2oc2c(-c3c(O)c([C@@H]4O[C@H](CO)[C@@H](O)[C@H](O)[C@H]4O)c(O)c4c(=O)c5cc(O)c(O)cc5oc34)c(O)c([C@@H]3O[C@H](CO)[C@@H](O)[C@H](O)[C@H]3O)c(O)c12	46.1%	–
CO[C@@H]([C@@H]1OC(C(=O)O)=C[C@H](NC(=N)N)[C@H]1NC(C)=O)[C@H](O)CO	–	IC50 [2]: 3.1 µM
COc1cc(O)c(C(=O)c2ccc(O)cc2)c(O[C@@H]2O[C@H](CO)[C@@H](O)[C@H](O)[C@H]2O)c1	inactive	–
